Reference: patent US4720494A, “Anticholinergic eucatropine esters and antiperspirant use thereof” (priority 1984, dated 1988)
“And” between values parts separate entries of the source, which are not always exact repeats. Equal entries are not always repeated.

Columns and labels:
[1] = test system: pupil light reflex of rabbit eye; experiment: Rabbit abolition of light reflex assay (RALR), mydriasis
Text: In order to determine the potential for mydriasis produced by the anticholinergic antiperspirant compositions of our invention, the rabbit abolition of light reflex assay was employed. In this assay, solutions of test compounds are instilled in the eyes of rabbits and response to light stimulus followed as a function of time.
The test animals used were female, New Zealand albino rabbits which were 12 to 14 weeks old when first used for testing. A test group consisted of fifteen animals and could be used 8 to 10 weeks before the rabbits became too large to handle.
Prior to the first use of a rabbit group, a determination of the responsiveness of each pupil to a light stimulus was determined. Under room illumination provided by fluorescent tubes, the bilateral symmetry of the pupil light reflex was ascertained by directing a beam of light from a penlight-type of flashlight into each pupil. If proper response was present, the animals were subsequently used.
The mydriatic response to an anticholinergic was determined in the following manner. The animals were held in wooden restrainer boxes during the test. The distance between the mid-sagittal plane of one animal and that of the immediately adjacent animal was 11 inches. Into one conjunctival sac of each animal was installed 0.1 mL of a given concentration of the compound under test in 0.9% sodium chloride. […] Thus, for eucatropine derivatives, solutions were prepared to correspond to one percent eucatropine.HCl. After installation of the solution, the lids of the treated eye were held closed for one minute to prevent the loss of the test dose. After this time the lids were held open by gentle finger pressure, and the cornea and conjunctival sac irrigated with one mL of 0.9% aqueous sodium chloride applied in drops from a 10 mL syringe. The procedure was repeated in the other eye using 0.1 mL 0.9% saline as a control. Each rabbit was treated at two to three minutes following the preceding rabbit.
Observation of the rabbit eye pupil size was made at 30, 60 and 120 minutes after treatment by directing a penlight beam into each pupil. The response of both pupils to light was observed. Any degree of contraction of the pupil of the treated eye which was obviously less than that of the untreated eye was recorded as incomplete (partial) inhibition of the reflex. Failure of the pupil of the treated eye to contract in response to light was recorded as complete inhibition of the reflex. The responses of each rabbit were recorded. Both partial and complete inhibition were recorded as inhibited. The animals were not used again for at least 72 hours and the same eye was not used for treatment by test solutions in successive experiments.

[2] = test system: sweating of mouse foot (pilocarpine-stimulated); experiment: Mouse foot antiperspirant assay; type: in vivo, ICR/CD-1 male albino mice; conditions: for antiperspirant potency relative to eucatropine (in words): DCC esters, compared with parent eucatropine; for EC50: s.c. 5 μL in foot pad, pilocarpine-stimulated sweating, average EC50
Method: For the dose-response determination, four or five groups of 10 ICR/CD-1 male albino mice weighing approximately 20 gm were used. The animals were anaesthetized with 0.20 mL of a 250 mg/mL solution of ethyl carbamate injected intraperitoneally. Anticholinergic test solutions using 0.9% aqueous sodium chloride were injected subcutaneously under the plantar foot pads of the right hind feet of 10 mice per concentration. The 26 gauge, 2 in. needle of a Hamilton 5 μL syringe was inserted at the rear of the plantar surface and threaded forward. The dose, 5 μL, was delivered subcutaneously near the interdigital foot pads. Subsequently, both hind feet were coated with a 1:1 suspension of soluble starch in 2% ethanolic iodine-castor oil.
At 5 minutes after test solution injection, sweating was stimulated by injecting each animal intraperitoneally with 0.20 mL of 1 mg/mL pilocarpine.HCl in 0.9% aqueous sodium chloride. The appearance of blue-black spots within five minutes after stimulation by pilocarpine was the criterion for sweating. The criterion for the animals responding to the anticholinergic was absence of sweating on two or more tubercles of the treated foot. A 7X magnifying glass was used to enlarge the foot for evaluation.
As many concentrations were tested as needed to obtain two points with more than 50% but less than 100% of the animals responding and two points with less than 50% but more than 0% of the animals responding.
For some esters it was necessary to alter the concentration interval to obtain the appropriate spread of responses in a minimum of trials. […] Each compound was run at least twice. The average EC50 was used for comparison with other anticholinergics.

[3] = esters synthesized by DCC method, fraction of animals with inhibition at 60 min, 1% solutions based on eucatropine
[4] = esters synthesized by DCC method
[5] = esters synthesized via acid chloride
[6] = esters synthesized via acid chloride, fraction of animals with inhibition at 60 min, 1% solutions based on eucatropine

Row | Compound | EC50 [2, 4] | RALR (60 min.) ([1]; rabbit, in vivo) | RALR (60 min.) [1, 3] | antiperspirant potency relative to eucatropine (in words) [2] | also measured
1 | CC1CC(OC(=O)C(OC(=O)c2cnc3ccccc3c2)c2ccccc2)CC(C)(C)N1C.Cl (centres unmarked) | 10 mM | – | 0.73 | a reduction in EC50 over eucatropine | mydriasis in the rabbit eye (in words) ([1]; compared with eucatropine): reduced mydriasis
2 | CC1CC(OC(=O)C(OC(=O)c2ccnc3ccccc23)c2ccccc2)CC(C)(C)N1C.Cl (centres unmarked) | – | – | 0.60 | a reduction in EC50 over eucatropine | mydriasis in the rabbit eye (in words) ([1]; compared with eucatropine): reduced mydriasis
3 | CC(C)C(=O)O [Isobutyrate] | 1.6 mM | 0.88 | – | – | –
4 | CC1CC(OC(=O)C(OC(=O)CC2CCCCC2)c2ccccc2)CC(C)(C)N1C.Cl (centres unmarked) | 87 mM | 0.67 | – | – | –
5 | CC1CC(OC(=O)C(OC(=O)C2CCCCC2)c2ccccc2)CC(C)(C)N1C.Cl (centres unmarked) | 41 mM | – | – | – | EC50 [2, 5]: 43 mM
6 | Phenylacetate | 5.3 mM | – | 1.00 | equalled or nearly equalled that of the parent eucatropine | RALR (60 min.) [1, 6]: 0.47; EC50 [2, 5]: 78 mM
7 | O=C(O)C1CCCC1 [Cyclopentanecarboxylate] | 78 mM | 0.67 | – | – | –
8 | CCCCCCCC(=O)OC(C(=O)OC1CC(C)N(C)C(C)(C)C1)c1ccccc1.Cl (centres unmarked) [Octanoate] | 11 mM | – | 0.93 | – | RALR (60 min.) [1, 6]: 0.50; EC50 [2, 5]: 9.6 mM
9 | CC1CC(OC(=O)C(OC(=O)c2cccnc2)c2ccccc2)CC(C)(C)N1C.Cl (centres unmarked) [Nicotinate] | 6.5 mM | – | 0.60 | only a slight decrease in antiperspirant potency relative to eucatropine | –
10 | Benzoate | 0.3 mM | – | 0.88 and 0.87 | more potent than eucatropine | RALR (60 min.) [1, 6]: 0.20; EC50 [2, 5]: 25 mM
11 | CC1CC(OC(=O)C(OC(=O)c2ccc(N(C)C)cc2)c2ccccc2)CC(C)(C)N1C.Cl (centres unmarked) | 25 mM | – | 0.27 | – | –

More lines, main results first:

Row | EC50 [2, 4] | RALR (60 min.) ([1]; rabbit, in vivo) | Compound | RALR (60 min.) [1, 3] | antiperspirant potency relative to eucatropine (in words) [2] | also measured
12 | 1.4 mM | – | CC1CC(OC(=O)C(OC(=O)C(Cl)c2ccccc2)c2ccccc2)CC(C)(C)N1C.Cl (centres unmarked) | – | equalled or nearly equalled that of the parent eucatropine | –
13 | 2 mM | 0.40 | CC1CC(OC(=O)C(OC(=O)c2ccccn2)c2ccccc2)CC(C)(C)N1C.Cl (centres unmarked) | – | only a slight decrease in antiperspirant potency relative to eucatropine | –
14 | 16 mM | – | COc1ccc(C(=O)OC(C(=O)OC2CC(C)N(C)C(C)(C)C2)c2ccccc2)cc1.Cl (centres unmarked) | – | – | –
15 | 4.7 mM and 4.8 mM | 1.00 | CC1CC(OC(=O)C(OC(=O)C2CC2)c2ccccc2)CC(C)(C)N1C.Cl (centres unmarked) | – | – | EC50 [2, 5]: 36 mM
16 | 84 mM | – | Cc1ccc(C(=O)OC(C(=O)OC2CC(C)N(C)C(C)(C)C2)c2ccccc2)cc1.Cl (centres unmarked) [p-Toluate] | – | – | –
17 | – | 1.00 | CC1CC(OC(=O)C(O)c2ccccc2)CC(C)(C)N1C (centres unmarked) [H, eucatropine] | – | – | incomplete response (light reflex) in rabbits at 60 minutes ([1]; rabbit, in vivo): eight out of eight; EC50 ([2]; Mus musculus, sc, parent eucatropine (ester group H)): 7.2 mM
18 | 11 mM | 0.80 | CC1CC(OC(=O)C(OC(=O)c2cnccn2)c2ccccc2)CC(C)(C)N1C.Cl (centres unmarked) | – | a reduction in EC50 over eucatropine | mydriasis in the rabbit eye (in words) ([1]; rabbit, in vivo): reduced mydriasis
19 | 5.2 mM | 0.00 | CC1CC(OC(=O)C(OC(=O)c2ccncc2)c2ccccc2)CC(C)(C)N1C.Cl (centres unmarked) | – | only a slight decrease in antiperspirant potency relative to eucatropine | mydriasis in the rabbit eye (in words) ([1]; rabbit, in vivo): no mydriasis
20 | 18 mM | 1.00 | CC1CC(OC(=O)C(OC(=O)C2CCC2)c2ccccc2)CC(C)(C)N1C.Cl (centres unmarked) | – | – | –
21 | 67 mM | 1.00 | CC1CC(OC(=O)C(OC(=O)CC2CCCC2)c2ccccc2)CC(C)(C)N1C.Cl (centres unmarked) | – | – | –
